This note sets out measurements from PMC11220031, “Structural basis for the inhibition mechanism of LAT1-4F2hc complex by JPH203” (Cell Discovery, 2024).

What all share (experiment): microscale thermophoresis (MST)
Details in all cases: read-out: binding affinity

For test [1], the target named is T1, LAT2–4F2hc complex (Homo sapiens, UniProt Q9UHI5, F250Y).
T1 construct: gene SLC7A8; LAT2–4F2hc heteromeric complex used for MST; construct, host and tags only in supplement; with Amino acid transporter heavy chain SLC3A2 (4F2 cell-surface antigen heavy chain)
T1 sequence (Q9UHI5 1-535 F250Y): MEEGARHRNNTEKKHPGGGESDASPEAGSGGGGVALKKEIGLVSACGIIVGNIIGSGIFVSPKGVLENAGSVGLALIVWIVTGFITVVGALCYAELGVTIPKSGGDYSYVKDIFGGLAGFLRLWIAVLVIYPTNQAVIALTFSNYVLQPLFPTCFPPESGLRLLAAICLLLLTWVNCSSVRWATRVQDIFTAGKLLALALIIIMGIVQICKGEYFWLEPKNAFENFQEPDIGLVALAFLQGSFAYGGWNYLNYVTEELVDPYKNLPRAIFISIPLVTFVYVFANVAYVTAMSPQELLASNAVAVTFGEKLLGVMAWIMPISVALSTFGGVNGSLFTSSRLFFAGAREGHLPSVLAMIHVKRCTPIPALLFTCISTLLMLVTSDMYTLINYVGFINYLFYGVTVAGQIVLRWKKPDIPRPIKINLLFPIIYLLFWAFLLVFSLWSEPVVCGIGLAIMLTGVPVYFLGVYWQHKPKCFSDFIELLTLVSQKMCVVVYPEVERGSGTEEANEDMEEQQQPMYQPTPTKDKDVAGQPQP
T1 sequence (P08195 2-529 partner): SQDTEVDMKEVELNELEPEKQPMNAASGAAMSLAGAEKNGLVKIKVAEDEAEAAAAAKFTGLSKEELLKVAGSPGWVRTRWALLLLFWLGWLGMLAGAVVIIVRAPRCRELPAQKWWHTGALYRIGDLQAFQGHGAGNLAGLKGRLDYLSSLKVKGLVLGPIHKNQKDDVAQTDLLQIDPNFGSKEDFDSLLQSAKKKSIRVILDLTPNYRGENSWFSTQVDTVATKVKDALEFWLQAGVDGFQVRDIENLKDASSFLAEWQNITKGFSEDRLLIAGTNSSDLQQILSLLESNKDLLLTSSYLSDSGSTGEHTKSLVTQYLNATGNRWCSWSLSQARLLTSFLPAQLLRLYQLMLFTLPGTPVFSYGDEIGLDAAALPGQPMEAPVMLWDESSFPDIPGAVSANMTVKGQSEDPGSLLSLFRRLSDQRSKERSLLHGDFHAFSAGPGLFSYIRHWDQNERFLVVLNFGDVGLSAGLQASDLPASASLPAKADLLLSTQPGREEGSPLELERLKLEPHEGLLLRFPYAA

The target of test [2] is T2, LAT2–4F2hc complex (Homo sapiens, UniProt Q9UHI5, V391F).
T2 construct: gene SLC7A8; LAT2–4F2hc heteromeric complex used for MST; construct, host and tags only in supplement; with Amino acid transporter heavy chain SLC3A2 (4F2 cell-surface antigen heavy chain)
T2 sequence (Q9UHI5 1-535 V391F): T1 sequence (Q9UHI5 1-535 F250Y) with Y250F, V391F
T2 sequence (P08195 2-529 partner): T1 sequence (P08195 2-529 partner)

The target of test [3] is T3, LAT1–4F2hc complex (Homo sapiens, UniProt Q01650, Y259F).
T3 construct: gene SLC7A5; full-length LAT1–4F2hc heteromeric complex, purified by size-exclusion chromatography; host and tags only in supplement; with Amino acid transporter heavy chain SLC3A2 (4F2 cell-surface antigen heavy chain)

The target of test [4] is T4, LAT1–4F2hc complex (Homo sapiens, UniProt Q01650, F400V).
T4 construct: gene SLC7A5; full-length LAT1–4F2hc heteromeric complex, purified by size-exclusion chromatography; host and tags only in supplement; with Amino acid transporter heavy chain SLC3A2 (4F2 cell-surface antigen heavy chain)

The target in test [5] is T5, LAT1–4F2hc complex (Homo sapiens, UniProt Q01650).
T5 construct: gene SLC7A5; full-length LAT1–4F2hc heteromeric complex, purified by size-exclusion chromatography; host and tags only in supplement; with Amino acid transporter heavy chain SLC3A2 (4F2 cell-surface antigen heavy chain)

The target in test [6] is T6, LAT2–4F2hc complex (Homo sapiens, UniProt Q9UHI5).
T6 construct: gene SLC7A8; LAT2–4F2hc heteromeric complex used for MST; construct, host and tags only in supplement; with Amino acid transporter heavy chain SLC3A2 (4F2 cell-surface antigen heavy chain)
T6 sequence (Q9UHI5 1-535): T1 sequence (Q9UHI5 1-535 F250Y) with Y250F
T6 sequence (P08195 2-529 partner): T1 sequence (P08195 2-529 partner)

Molecules are shown by their SMILES. Residue numbers refer to the chain shown, from its start.

T5 sequence (Q01650 2-507, one chain of several): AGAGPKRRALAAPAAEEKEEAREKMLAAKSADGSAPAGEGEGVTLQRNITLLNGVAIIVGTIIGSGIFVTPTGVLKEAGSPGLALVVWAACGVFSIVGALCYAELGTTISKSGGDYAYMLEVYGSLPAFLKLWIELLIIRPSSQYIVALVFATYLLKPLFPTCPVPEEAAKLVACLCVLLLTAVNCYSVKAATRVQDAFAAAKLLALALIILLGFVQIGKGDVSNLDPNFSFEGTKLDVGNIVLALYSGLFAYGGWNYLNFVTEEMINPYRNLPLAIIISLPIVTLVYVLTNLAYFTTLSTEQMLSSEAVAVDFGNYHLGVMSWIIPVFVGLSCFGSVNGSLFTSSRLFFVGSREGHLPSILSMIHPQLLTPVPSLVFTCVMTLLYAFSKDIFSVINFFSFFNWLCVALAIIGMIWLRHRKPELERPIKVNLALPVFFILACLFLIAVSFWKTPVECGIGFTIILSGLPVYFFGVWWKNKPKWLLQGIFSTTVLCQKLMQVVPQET
T4 sequence (Q01650 2-507 F400V, one chain of several): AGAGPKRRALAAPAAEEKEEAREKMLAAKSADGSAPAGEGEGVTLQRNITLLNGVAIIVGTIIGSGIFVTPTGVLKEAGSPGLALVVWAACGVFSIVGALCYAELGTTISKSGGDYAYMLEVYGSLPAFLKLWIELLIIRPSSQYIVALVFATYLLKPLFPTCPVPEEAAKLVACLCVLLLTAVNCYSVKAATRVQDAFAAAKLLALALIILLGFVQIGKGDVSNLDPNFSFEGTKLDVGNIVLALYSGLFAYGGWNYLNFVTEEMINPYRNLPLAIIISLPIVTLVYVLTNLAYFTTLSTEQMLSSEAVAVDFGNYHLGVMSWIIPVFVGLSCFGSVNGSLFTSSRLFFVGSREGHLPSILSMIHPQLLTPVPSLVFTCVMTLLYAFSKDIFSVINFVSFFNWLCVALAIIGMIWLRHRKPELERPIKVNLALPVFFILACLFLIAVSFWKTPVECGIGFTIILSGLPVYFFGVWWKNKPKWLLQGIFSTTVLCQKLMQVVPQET
T3 sequence (Q01650 2-507 Y259F, one chain of several): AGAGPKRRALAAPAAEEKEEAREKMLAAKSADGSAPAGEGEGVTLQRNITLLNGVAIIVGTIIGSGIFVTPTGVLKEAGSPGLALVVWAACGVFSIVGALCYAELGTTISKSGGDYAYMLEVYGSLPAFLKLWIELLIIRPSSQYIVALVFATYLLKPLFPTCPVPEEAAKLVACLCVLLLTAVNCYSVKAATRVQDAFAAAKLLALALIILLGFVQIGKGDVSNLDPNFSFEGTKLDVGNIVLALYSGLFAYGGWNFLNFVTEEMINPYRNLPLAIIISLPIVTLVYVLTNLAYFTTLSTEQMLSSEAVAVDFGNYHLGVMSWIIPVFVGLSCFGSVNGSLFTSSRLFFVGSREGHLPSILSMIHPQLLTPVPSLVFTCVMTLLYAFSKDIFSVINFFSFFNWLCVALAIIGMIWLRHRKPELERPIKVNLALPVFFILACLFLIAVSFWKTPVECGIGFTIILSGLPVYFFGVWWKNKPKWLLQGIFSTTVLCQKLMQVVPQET

With `Nc1cc(COc2c(Cl)cc(C[C@H](N)C(=O)O)cc2Cl)c2oc(-c3ccccc3)nc2c1` [JPH203], the Kd on LAT2–4F2hc complex [1] came to 2550 ± 960 nM; on LAT2–4F2hc complex [2], 1780 ± 650 nM; at LAT1–4F2hc complex [3], 3.81 ± 1.26 µM; on LAT1–4F2hc complex [4], 6.21 ± 1.58 µM; on LAT1–4F2hc complex [5], 1480 ± 280 nM; at LAT2–4F2hc complex [6], 4.51 ± 1.35 µM.
